Experimental findings from patent US11590116B2 (THERAVANCE BIOPHARMA R&D IP, LLC, priority 2019, dated 2023) are described below.

The subject of experiment [1] is TGF-β-stimulated SMAD3 phosphorylation in BEAS-2B cells. The experiment is described as follows: Cellular ALK5 potency assay, inhibition of TGF-β stimulated pSMAD3 formation in BEAS-2B cells. The note with it: Homo sapiens; inhibition of TGF-β stimulated pSMAD3 formation, BEAS-2B cells; read-out: BEAS2B pIC50 (converted). In kind it is cell-based. The essentials:
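Cells seeded overnight; rinse with supplemented HBSS; compound 1 h at 37 °C; TGF-β 10 ng/mL final, 30 min; lyse; AlphaLISA acceptor and detector beads 2 h apart, read next day. Potency expressed as pIC50.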

Experiment [2] concerns the target T1, recombinant human ALK5 (TGF-βR1) protein (Homo sapiens, UniProt P36897).
T1 construct: purchased Life Technologies PR9075A
T1 sequence (P36897 34-503): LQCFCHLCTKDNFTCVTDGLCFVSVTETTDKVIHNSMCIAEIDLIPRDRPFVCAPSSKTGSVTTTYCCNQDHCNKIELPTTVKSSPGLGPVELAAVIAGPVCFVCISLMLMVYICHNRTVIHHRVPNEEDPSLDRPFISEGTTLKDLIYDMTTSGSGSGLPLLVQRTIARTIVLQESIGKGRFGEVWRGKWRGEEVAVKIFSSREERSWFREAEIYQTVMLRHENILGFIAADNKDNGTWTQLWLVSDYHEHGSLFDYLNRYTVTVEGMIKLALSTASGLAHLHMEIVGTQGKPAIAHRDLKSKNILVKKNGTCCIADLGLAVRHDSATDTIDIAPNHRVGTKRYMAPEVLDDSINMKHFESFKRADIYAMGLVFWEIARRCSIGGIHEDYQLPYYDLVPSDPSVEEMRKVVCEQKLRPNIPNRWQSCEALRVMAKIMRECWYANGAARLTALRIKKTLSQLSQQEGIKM
In words: Biochemical ALK5 (TGF-βR1) assay to measure pKi (LANCE Ultra ULight kinase assay). The note with it: apparent pKi from pIC50 by Cheng-Prusoff, read-out: ALK5 pKi (converted). The essentials:
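Compounds (10 μM to 25 pM) were preincubated 60 min at room temperature with enzyme, then reactions were started with ATP (125 μM stock, 5× final) and run 60 min at 37 °C. EDTA-containing Eu-anti-phospho-Topo IIα (Thr1342) antibody stopped the reaction; TR-FRET read at 665 nm. pIC50 from 4-parameter fit, converted to pKi via Cheng-Prusoff.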
A general note: In TR-FRET formats the signal depends on donor and acceptor labels being close together.

With `Cc1cccc(-c2n[nH]cc2-c2ccc3ncc(-c4c(C)n[nH]c4C)cc3n2)n1` [Compound 366, 7-(3,5-dimethyl-1H-pyrazol-4-yl)-2-[3-(6-methyl-2-pyridyl)-1H-pyrazol-4-yl]-1,5-naphthyridine], the IC50 in experiment [1] is 200 to 1260 nM. For the same compound, the Ki in experiment [2] was 0.0398 to 0.316 nM.
The like results for `Cc1cccc(-c2c(-c3ccc4ncc(NCCN5CCN(C(C)C)CC5)cc4c3)nnn2Cc2ccccc2)n1` [Compound 351, 6-[1-benzyl-5-(6-methyl-2-pyridyl)triazol-4-yl]-N-[2-(4-isopropylpiperazin-1-yl)ethyl]quinolin-3-amine] were, in that order, 200 to 1260 nM and 3.98 to 31.6 nM.
The like results for `Cc1cccc(-c2c(-c3ccc4ncc(N5CCC(N(C)C)C5)cc4c3)nnn2Cc2ccccc2)n1` (stereo not drawn) [Compound 38, 1-[6-[1-benzyl-5-(6-methyl-2-pyridyl)triazol-4-yl]-3-quinolyl]-N,N-dimethyl-pyrrolidin-3-amine] were, in that order, 1580 to 10000 nM and 0.398 to 3.16 nM.
Taken in the same sequence, the figures for `Cc1cccc(-c2[nH]cnc2-c2ccc3ncc(C(=O)O[C@@H]4CCN(C)C4)cc3c2)n1` [Compound 758, [(3R)-1-methylpyrrolidin-3-yl] 6-[5-(6-methyl-2-pyridyl)-1H-imidazol-4-yl]quinoline-3-carboxylate] were 25.1 to 158 nM and 0.398 to 3.16 nM.
Take `Cc1cccc(-c2[nH]cnc2-c2ccc3ncc(-c4cccc5c4CNCC5)cc3c2)n1` [Compound 493, 6-[5-(6-methyl-2-pyridyl)-1H-imidazol-4-yl]-3-(1,2,3,4-tetrahydroisoquinolin-8-yl)quinoline]: the IC50 in experiment [1] is 200 to 1260 nM. Also, in experiment [2], the Ki was 3.98 to 31.6 nM.
Take `Cc1cccc(-c2[nH]ncc2-c2ccc3ncc(C(=O)OCCN4CC[C@@H](N)C4)cc3c2)n1` [Compound 1211, 2-[(3R)-3-aminopyrrolidin-1-yl]ethyl 6-[5-(6-methyl-2-pyridyl)-1H-pyrazol-4-yl]quinoline-3-carboxylate]: the IC50 in experiment [1] was 25.1 to 158 nM. In addition, in experiment [2], the Ki was 0.0398 to 0.316 nM.
As to `Cc1cccc(-c2n[nH]cc2-c2ccc3ncc(-c4cnn(CC(=O)N5CCNCC5)c4)cc3n2)n1` [Compound 295, 2-[4-[6-[3-(6-methyl-2-pyridyl)-1H-pyrazol-4-yl]-1,5-naphthyridin-3-yl]pyrazol-1-yl]-1-piperazin-1-yl-ethanone], the IC50 in experiment [1] was 200 to 1260 nM. Besides, the Ki in experiment [2] is 0.0398 to 0.316 nM.
Taken in the same sequence, the figures for `Cc1cccc(-c2[nH]cnc2-c2ccc3ncc(C4=CCC(NC(C)C)CC4)cc3n2)n1` (stereo not drawn) [Compound 258, N-isopropyl-4-(6-(5-(6-methylpyridin-2-yl)-1H imidazol-4-yl)-1,5-naphthyridin-3-yl)cyclohex-3-en-1-amine] were 25.1 to 158 nM and less than 0.0316 nM.
The like results for `Cc1cccc(-c2n[nH]cc2-c2ccc3nccc(NC(=O)CCCN4CCOCC4)c3n2)n1` [Compound 842, N-[6-[3-(6-methyl-2-pyridyl)-1H-pyrazol-4-yl]-1,5-naphthyridin-4-yl]-4-morpholino-butanamide] were, in that order, 25.1 to 158 nM and 0.398 to 3.16 nM.
Taken in the same sequence, the figures for `Cc1cccc(-c2[nH]cnc2-c2ccc3ncc(-c4nccc(C(=O)OC5CCNCC5)n4)cc3c2)n1` [Compound 1102, 4-piperidyl 2-[6-[5-(6-methyl-2-pyridyl)-1H-imidazol-4-yl]-3-quinolyl]pyrimidine-4-carboxylate] were 200 to 1260 nM and 0.0398 to 0.316 nM.
Take `CNCCn1cc(-c2cnc3ccc(-c4nnn(Cc5ccccc5)c4-c4cccc(C)n4)cc3c2)cn1` [Compound 314, 2-[4-[6-[1-benzyl-5-(6-methyl-2-pyridyl)triazol-4-yl]-3-quinolyl]pyrazol-1-yl]-N-methyl-ethanamine]: the IC50 in experiment [1] is 1580 to 10000 nM. The Ki in experiment [2] was 3.98 to 31.6 nM.
In the case of `COC(=O)c1cccc(-c2cnc3ccc(-c4c[nH]nc4-c4cccc(C)n4)nc3c2)c1` [Compound 369, methyl 3-[6-[3-(6-methyl-2-pyridyl)-1H-pyrazol-4-yl]-1,5-naphthyridin-3-yl]benzoate], the IC50 in experiment [1] is less than 20 nM. The Ki in experiment [2] was less than 0.0316 nM.
With `Cc1cccc(-c2n[nH]cc2-c2ccc3ncc(NCCN4CCCC4)cc3n2)n1` [Compound 597, 6-[3-(6-methyl-2-pyridyl)-1H-pyrazol-4-yl]-N-(2-pyrrolidin-1-ylethyl)-1,5-naphthyridin-3-amine], the IC50 in experiment [1] is 25.1 to 158 nM. Moreover, in experiment [2], the Ki is less than 0.0316 nM.
The like results for `Cc1nc(-c2n[nH]cc2-c2ccc3ncc(-c4cn[nH]c4)cc3c2)ccc1F` [Compound 449, 6-[3-(5-fluoro-6-methyl-2-pyridyl)-1H-pyrazol-4-yl]-3-(1H-pyrazol-4-yl)quinoline] were, in that order, less than 20 nM and less than 0.0316 nM.
Taken in the same sequence, the figures for `Cc1cccc(-c2n[nH]cc2-c2ccc3ncc(-c4cn[nH]c4)cc3n2)n1` [Compound 233, 2-[3-(6-methyl-2-pyridyl)-1H-pyrazol-4-yl]-7-(1H-pyrazol-4-yl)-1,5-naphthyridine] were less than 20 nM and less than 0.0316 nM.
Taken in the same sequence, the figures for `Cc1cccc(-c2n[nH]cc2-c2ccc3ncc(-c4cccs4)cc3n2)n1` [Compound 80, 2-[3-(6-methyl-2-pyridyl)-1H-pyrazol-4-yl]-7-(2-thienyl)-1,5-naphthyridine] were 25.1 to 158 nM and 0.0398 to 0.316 nM.
For `Cc1cccc(-c2[nH]cnc2-c2ccc3ncc(NCCN4CC5CNC5C4)cc3c2)n1` (stereo not drawn) [Compound 129, N-[2-(3,6-diazabicyclo[3.2.0]heptan-3-yl)ethyl]-6-[5-(6-methyl-2-pyridyl)-1H-imidazol-4-yl]quinolin-3-amine], the IC50 in experiment [1] was 200 to 1260 nM. For the same compound, the Ki in experiment [2] is 0.0398 to 0.316 nM.
The like results for `Cc1cccc(-c2n[nH]cc2-c2ccc3ncc(C#N)cc3n2)n1` [Compound 236, 6-[3-(6-methyl-2-pyridyl)-1H-pyrazol-4-yl]-1,5-naphthyridine-3-carbonitrile] were, in that order, 25.1 to 158 nM and 0.398 to 3.16 nM.
Taken in the same sequence, the figures for `Cc1cccc(-c2n[nH]cc2-c2ccc3nccc(C(=O)OCCCN4CCOCC4)c3n2)n1` [Compound 826, 3-morpholinopropyl 6-[3-(6-methyl-2-pyridyl)-1H-pyrazol-4-yl]-1,5-naphthyridine-4-carboxylate] were 25.1 to 158 nM and 0.398 to 3.16 nM.
Taken in the same sequence, the figures for `Cc1cccc(-c2nc3ccccn3c2-c2ccc3ncc(N4CCCNCC4)cc3n2)n1` [Compound 646, 7-(1,4-diazepan-1-yl)-2-[2-(6-methyl-2-pyridyl)imidazo[1,2-a]pyridin-3-yl]-1,5-naphthyridine] were 25.1 to 158 nM and 0.0398 to 0.316 nM.
Take `Cc1cccc(-c2n[nH]cc2-c2ccc3ncc(-c4c[nH]cn4)cc3n2)n1` [Compound 157, 7-(1H-imidazol-4-yl)-2-[3-(6-methyl-2-pyridyl)-1H-pyrazol-4-yl]-1,5-naphthyridine]: the IC50 in experiment [1] was 25.1 to 158 nM. Moreover, the Ki in experiment [2] is 0.0398 to 0.316 nM.
Take `Cc1cccc(-c2[nH]cnc2-c2ccc3ncc(C(=O)O[C@H]4C[C@@H](N)C4)cc3c2)n1` [Compound 759, (3-aminocyclobutyl) 6-[5-(6-methyl-2-pyridyl)-1H-imidazol-4-yl]quinoline-3-carboxylate]: in experiment [1], the IC50 is 25.1 to 158 nM. Besides, the Ki in experiment [2] is 0.0398 to 0.316 nM.
The like results for `Cc1cccc(-c2[nH]cnc2-c2ccc3ncc(-c4ncc(CN5C[C@@H](C)N[C@@H](C)C5)s4)cc3c2)n1` [Compound 1028, 5-[[(3S,5R)-3,5-dimethylpiperazin-1-yl]methyl]-2-[6-[5-(6-methyl-2-pyridyl)-1H-imidazol-4-yl]-3-quinolyl]thiazole] were, in that order, less than 20 nM and 0.0398 to 0.316 nM.
The like results for `Cc1cccc(-c2n[nH]cc2-c2ccc3ncc(NC(=O)CCN4CCN(C(C)C)CC4)cc3n2)n1` [Compound 530, 3-(4-isopropylpiperazin-1-yl)-N-[6-[3-(6-methyl-2-pyridyl)-1H-pyrazol-4-yl]-1,5-naphthyridin-3-yl]propanamide] were, in that order, 25.1 to 158 nM and 0.0398 to 0.316 nM.
Taken in the same sequence, the figures for `Cc1cccc(-c2n[nH]cc2-c2ccc3ncc(Nc4ccc(N5CCN(C)CC5)cc4)cc3c2)n1` [Compound 664, N-(4-(4-methylpiperazin-1-yl)phenyl)-6-(3-(6-methylpyridin-2-yl)-1H-pyrazol-4-yl)quinolin-3-amine] were 25.1 to 158 nM and 0.0398 to 0.316 nM.
Turning to `Cc1cccc(-c2[nH]cnc2-c2ccc3ncc(N4CCNC(CC(=O)OC(C)C)C4)cc3c2)n1` (stereo not drawn) [Compound 24, isopropyl 2-[4-[6-[5-(6-methyl-2-pyridyl)-1H-imidazol-4-yl]-3-quinolyl]piperazin-2-yl]acetate], the IC50 in experiment [1] is 25.1 to 158 nM. In addition, the Ki in experiment [2] is 0.0398 to 0.316 nM.
Taken in the same sequence, the figures for `Cc1cccc(-c2n[nH]cc2-c2ccc3ncc(-c4cnc(N)s4)cc3n2)n1` [Compound 333, 5-[6-[3-(6-methyl-2-pyridyl)-1H-pyrazol-4-yl]-1,5-naphthyridin-3-yl]thiazol-2-amine] were 25.1 to 158 nM and 0.0398 to 0.316 nM.
